This is an account of results in patent US9738669B2, “Pentaaza macrocyclic ring complexes possessing oral bioavailability” (Galera Labs, LLC, priority 2015, dated 2017).

The data set is described as follows: Intraduodenal (id) bioavailability screen in minipigs, plasma level of parent Mn complex by HPLC/MS/MS. The settings on record: for Mini-Pig BioA: id 10 mg/kg, vs 1 mg/kg iv parent chloro complex, AUC0→24 h. Format: in vivo, Gottingen minipig. As for the experimental part:
Compounds were screened for oral bioavailability by injecting the formulated prodrugs directly into the duodenum (intraduodenal or id administration) of the minipig test subjects, thus bypassing the acidic environment of the stomach and thereby eliminating potentially misleading oral bioavailability results that could arise from alteration of the test article drug in the acid environment of the stomach.
The studies were conducted at Xenometrics LLC (Stillwell, Kans.) and the id bioavailability was determined using various axial ligand derivative complexes of GC4419, GC4444, GC4403 and GC4401.
Male Gottingen minipigs (4-5 mo old, 9-12 kg weight) were purchased from Marshall BioResources and housed at Xenometrics. […] The distal end was exteriorized with a reusable accessible hub (see surgical details below). During a recovery period of at least 2 weeks the minipigs were handled daily to acclimate them to the test procedures, i.e., id dosing and blood collections. For each experiment, each minipig received a test article drug dissolved or suspended in an excipient vehicle. […] All dosing experiments were conducted in fasted animals. Food was withdrawn from the minipigs 16 hours before dosing. The minipigs had ad libitum access to water. Dosed minipigs were allowed access to food 6 hour after dosing. The test article was administered at a dose of 10 mg/kg parent drug in 0.1 mL/kg vehicle (e.g., 1.5 mL in 15 kg minipig) as a bolus injection (˜1 minute) via the id cannula. The actual amount of total test article drug administered varied with the formula weight of the prodrug. An equal volume of excipient vehicle was used to flush the cannula after the test article was administered. Approximately 6 hours later, corn oil was used to flush the cannula. After approximately 24 hours post-dose, the catheter was flushed with sterile saline solution and capped. At the following time-points 0.25, 0.5, 1, 2, 4, 8, 24 and 48 hour post-injection, 2 mL blood samples were collected by cranial vena cava puncture (4 mL Sodium heparin Vacutainer, 20 g 1.5″ needle) after the skin surface was wiped with ethanol. The minipig was placed in a sling in a recumbent position without anesthesia for the collection of blood samples. The minipigs were never used more than once per 7 days for experimentation. The blood samples were kept on ice until processed for plasma. Blood samples were centrifuged at 1200×g for ten minutes at 4° C. and plasma samples were transferred to 96 well plate tubes, capped and stored at −20° C. until shipment on dry ice to the analytical laboratory used for measuring the concentration of drug in the plasma. The concentration of the parent manganese pentaaza macrocylic ring complex (independent of the composition of the axial ligands) was measured in plasma using a validated HPLC/MS/MS method that is linear between 50 ng/mL and 20,000 ng/mL.
The oils used for preparing the dosing solutions were used as supplied from commercial sources. The Capmul MCM (NF) is a mixture of mono/diglycerides of caprylic/capric acids and was supplied by ABITEC Corporation, Janesville, Wis. The Miglyol 812 N is a mixture of caprylic/capric acid triglycerides and was supplied by Cremer Oleo Division, Eatontown, N.J. Labrafil M 2125 CS (NF) is chemically defined to be linoleoyl polyoxyl-6 glycerides NF and was supplied by Gattefosse, SAINT-PRIEST Cedex, France. Peceol is chemically defined to be the monoglyceride, glyceryl monooleate NF, and was supplied by Gattefosse, SAINT-PRIEST Cedex, France. Maisine 35-1 is chemically defined to be the monoglyceride glyceryl monolinoleate (NF) and was supplied by Gattefosse, SAINT-PRIEST Cedex, France. Labrasol (NF) is chemically defined to be caprylocaproyl polyoxyl-8 glycerides NF and was supplied by Gattefosse, SAINT-PRIEST Cedex, France. Labrafil M 1944 CS is chemically defined to be oleoyl polyoxyl-6 glycerides (NF), and is available from Gattefosse, SAINT-PRIEST Cedex, France. […]

The mark [1] stands for this setting: base oil Capmul MCM, 10% by weight.
Where [2] appears, read: base oil Maisine 35-1, 10% by weight.
Where [3] appears, read: base oil Labrafil M2125 CS, 10% by weight.

Regarding “Manganese(II)bis-Benzoato[(4aS,13aS,17aS,21aS)-1,2,3,4,4a,5,6,12,13,13a,14,15,16,17,17a,18,19,20,21,21a-Eicosahydro-11,7-nitrilo-7H-dibenzo[b,h][1,4,7,10]tetraazacycloheptadecine-κN5,κN13,κN18,κN21,κN22]- [GC4712]”, the “Mini-Pig BioA” value reads like this: under setting [1], 24%; under setting [2], 18%; (base oil Peceol, 10% by weight) 29%.

Regarding “Manganese(II)bis-L-Lactato[(4aS,13aS,17aS,21aS)-1,2,3,4,4a,5,6,12,13,13a,14,15,16,17,17a,18,19,20,21,21a-Eicosahydro-11,7-nitrilo-7H-dibenzo[b,h][1,4,7,10]tetraazacycloheptadecine-κN5,κN13,κN18,κN21,κN22]- [GC4714]”, under setting [1], the “Mini-Pig BioA” value came out at 36%.

With “Manganese(II)bis-L-phenylalaninato[(4aS,13aS,17aS,21aS)-1,2,3,4,4a,5,6,12,13,13a,14,15,16,17,17a,18,19,20,21,21a-Eicosahydro-11,7-nitrilo-7H-dibenzo[b,h][1,4,7,10]tetraazacyclo-heptadecine-κN5,κN13,κN18,κN21,κN22]- [GC4704]”, the “Mini-Pig BioA” value under setting [1] is given as 10%.

Turning to “Manganese(II)bis-L-phenylglycinato[(4aS,13aS,17aS,21aS)-1,2,3,4,4a,5,6,12,13,13a, 14,15,16,17,17a,18,19,20,21,21a-Eicosahydro-11,7-nitrilo-7H-dibenzo[b,h][1,4,7,10]tetraazacyclo-heptadecine-κN5,κN13,κN18,κN21,κN22]- [GC4702]”, the “Mini-Pig BioA” value under setting [1] was found to be 43%; the “Mini-Pig BioA” value under setting [3] worked out at 25%; the “Mini-Pig BioA” value (base oil Miglyol 812N, 10% by weight) came out at 42%; the “Mini-Pig BioA” value (base oil Peceol, 10% by weight) was 29%. Moreover, under “minipig id dosing, oil formulations, comparison between axial ligands”, the “oral bioavailability / absorption, comparison in words” value is recorded as “much better absorbed”.

Turning to “Manganese(II)bis-L-valinato[(4aS,13aS,17aS,21aS)-1,2,3,4,4a,5,6,12,13,13a,14,15,16,17,17a,18,19,20,21,21a-Eicosahydro-11,7-nitrilo-7H-dibenzo[b,h][1,4,7,10]tetraazacyclo-heptadecine-κN5,κN13,κN18,κN21,κN22]- [GC4746]”, the “Mini-Pig BioA” value under setting [1] is on record as 13%.

On to “Manganese(II)bis-acetato[(4aS,13aS,17aS,21aS)-1,2,3,4,4a,5,6,12,13,13a,14,15,16,17,17a,18,19,20,21,21a-Eicosahydro-11,7-nitrilo-7H-dibenzo[b,h][1,4,7,10]tetraazacycloheptadecine-κN5,κN13,κN18,κN21,κN22]- [GC4701]”, for which the “Mini-Pig BioA” value is recorded as 15% under setting [1]; 16% under setting [3]; 8% under setting [2]; 11% (base oil Peceol, 10% by weight).

Regarding “Manganese(II)bis-cyclohexanebutyrato[(4aS,13aS,17aS,21aS)-1,2,3,4,4a,5,6,12,13,13a, 14,15,16,17,17a,18,19,20,21,21a-Eicosahydro-11,7-nitrilo-7H-dibenzo[b,h][1,4,7,10]tetraazacyclo-heptadecine-κN5,κN13,κN18,κN21,κN22]- [GC4707]”, under setting [1], the “Mini-Pig BioA” value amounted to 9%.

“Manganese(II)bis-dodecanoato[(4aS,13aS,17aS,21aS)-1,2,3,4,4a,5,6,12,13,13a,14,15,16,17,17a,18,19,20,21,21a-Eicosahydro-11,7-nitrilo-7H-dibenzo[b,h][1,4,7,10]tetraazacycloheptadecine-κN5,κN13,κN18,κN21,κN22]- [GC4708]”: the “Mini-Pig BioA” value under setting [1] is reported as 12%.

“Manganese(II)bis-n-Butyrato[(4aS,13aS,17aS,21aS)-1,2,3,4,4a,5,6,12,13,13a,14,15,16,17,17a,18,19,20,21,21a-Eicosahydro-11,7-nitrilo-7H-dibenzo[b,h][1,4,7,10]tetraazacycloheptadecine-κN5,κN13,κN18,κN21,κN22]- [GC4713]”: the “Mini-Pig BioA” value runs as follows: under setting [3], 21%; (base oil Peceol, 10% by weight) 18%.

Consider “Manganese(II)bis-octanoato[(4aS,13aS,17aS,21aS)-1,2,3,4,4a,5,6,12,13,13a,14,15,16,17,17a,18,19,20,21,21a-Eicosahydro-11,7-nitrilo-7H-dibenzo[b,h][1,4,7,10]tetraazacycloheptadecine-κN5,κN13,κN18,κN21,κN22]- [GC4710]”, for which the “Mini-Pig BioA” value is, setting by setting: under setting [1], 13%; under setting [3], 21%; under setting [2], 8%.

On to “Manganese(II)bis-phenylacetato[(4aS,13aS,17aS,21aS)-1,2,3,4,4a,5,6,12,13,13a,14,15,16,17,17a,18,19,20,21,21a-Eicosahydro-11,7-nitrilo-7H-dibenzo[b,h][1,4,7,10]tetraazacyclo-heptadecine-κN5,κN13,κN18,κN21,κN22]- [GC4718]”, for which the “Mini-Pig BioA” value by setting is: under setting [1], 32%; under setting [2], 28%.

Take “Manganese(II)bis-phenylglyoxaloto[(4aS,13aS,17aS,21aS)-1,2,3,4,4a,5,6,12,13,13a,14,15,16,17,17a,18,19,20,21,21a-Eicosahydro-11,7-nitrilo-7H-dibenzo[b,h][1,4,7,10]tetraazacyclohepta-decine-κN5,κN13,κN18,κN21,κN22]- [GC4719]”: the “Mini-Pig BioA” value under setting [1] is 25%; the “Mini-Pig BioA” value under setting [2] is listed as 31%; the “Mini-Pig BioA” value (base oil Peceol, 10% by weight) worked out at 28%.

As to “Manganese(II)bis-pivaloato[(4aS,13aS,17aS,21aS)-1,2,3,4,4a,5,6,12,13,13a,14,15,16,17,17a,18,19,20,21,21a-Eicosahydro-11,7-nitrilo-7H-dibenzo[b,h][1,4,7,10]tetraazacycloheptadecine-κN5,κN13,κN18,κN21,κN22]- [GC4709]”, the “Mini-Pig BioA” value under setting [1] is listed as 17% and the “Mini-Pig BioA” value under setting [3] stood at 22%.

In the case of “Manganese(II)bis-propionato[6R-Methyl(4aR,13aR,17aR,21aR)-1,2,3,4,4a,5,6,12,13,13a,14,15,16,17,17a,18,19,20,21,21a-Eicosahydro-11,7-nitrilo-7H-dibenzo[b,h][1,4,7,10]tetraazacycloheptadecine-κN5,κN13,κN18,κN21,κN22]- [GC4747]”, the “Mini-Pig BioA” value under setting [3] was determined as 20%.

Consider “Manganese(II)bis-propionato[(4aR,13aR,17aR,21aR)-1,2,3,4,4a,5,6,12,13,13a,14,15,16,17,17a,18,19,20,21,21a-Eicosahydro-11,7-nitrilo-7H-dibenzo[b,h][1,4,7,10]tetraazacycloheptadecine-κN5,κN13,κN18,κN21,κN22]- [GC4748]”, for which the “Mini-Pig BioA” value under setting [3] is given as 22%.

On to “Manganese(II)bis-propionato[(4aS,13aS,17aS,21aS)-1,2,3,4,4a,5,6,12,13,13a,14,15,16,17,17a,18,19,20,21,21a-Eicosahydro-11,7-nitrilo-7H-dibenzo[b,h][1,4,7,10]tetraaza-cycloheptadecine-κN5,κN13,κN18,κN21,κN22]- [GC4711]”, for which the “Mini-Pig BioA” value stood at 27% under setting [1]; 23% (base oil Labrafil M1944 CS, 10% by weight); 44% under setting [3]; 29% under setting [2]; 29% (base oil Peceol, 10% by weight).

For the substance “Manganese(II)bis-rac-Mandelato[(4aS,13aS,17aS,21aS)-1,2,3,4,4a,5,6,12,13,13a,14,15,16,17,17a,18,19,20,21,21a-Eicosahydro-11,7-nitrilo-7H-dibenzo[b,h][1,4,7,10]tetraazacycloheptadecine-κN5,κN13,κN18,κN21,κN22]- [GC4706]”, the “Mini-Pig BioA” value under setting [1] is given as 28%.
